Target: T1, Cytochrome P450 1A2 (Homo sapiens, UniProt P05177)
T1 sequence (P05177 whole entry): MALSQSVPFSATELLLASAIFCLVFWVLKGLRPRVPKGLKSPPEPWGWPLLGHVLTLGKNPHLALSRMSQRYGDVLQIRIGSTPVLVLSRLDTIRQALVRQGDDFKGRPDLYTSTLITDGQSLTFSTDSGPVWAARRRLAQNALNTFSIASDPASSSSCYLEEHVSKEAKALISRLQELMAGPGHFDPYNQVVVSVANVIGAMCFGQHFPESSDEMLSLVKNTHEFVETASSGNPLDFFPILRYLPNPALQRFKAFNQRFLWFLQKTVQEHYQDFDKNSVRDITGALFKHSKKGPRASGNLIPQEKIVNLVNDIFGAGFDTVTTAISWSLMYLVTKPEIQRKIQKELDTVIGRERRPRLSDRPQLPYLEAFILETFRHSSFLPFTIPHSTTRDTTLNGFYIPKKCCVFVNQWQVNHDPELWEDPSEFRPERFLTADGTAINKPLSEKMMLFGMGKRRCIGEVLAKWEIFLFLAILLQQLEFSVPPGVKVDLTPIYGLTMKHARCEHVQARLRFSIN
Test: Inhibition of CYP1A2 in human liver microsome
Type: ADME, microsomes

IC50: > 50 µM
SMILES: O=C(c1ccc(-c2noc(-c3ccc(C(F)(F)F)cc3)n2)cc1)N1CCN(Cc2ccc(OCC(F)(F)F)cc2)CC1
